What was measured:
Huh-7 = test: Combination with sorafenib, cell viability / caspase-3 activity; assay type: cell-based, human
Experimental: (§1) Human liver cancer cell lines (SK Hep1 and Huh-7) were treated with control (no treatment), 5 μM of the compound of Example 1, 0.1 μM of sorafenib, and 5 μM of the compound of Example 1/0.1 μM of sorafenib, and the cell viability of SK Hep1 and Huh-7 was confirmed.

SK Hep1 = test: as above; assay type: cell-based, human
Experimental: as §1

OVCAR-3 = test: Combination with cisplatin, cell viability; assay type: cell-based, human
Experimental: (§2) Human ovarian cancer cell lines (SKOV-3 and OVCAR-3) were treated with control (no treatment), 0.1 μM of the compound of Example 1, 10 μM of cisplatin, […], and the cell viability of SKOV-3 and OVCAR-3 was confirmed.

SKOV-3 = test: Combination with cisplatin, cell viability; assay type: cell-based, human
Experimental: as §2

A549 = test: Cell viability assay (WST-8), cytotoxicity on cancer cell lines; assay type: cell-based, human
Experimental: (§3) The cytotoxicity of the compound of Example 1 against various cancer cell lines was evaluated. Etoposide, sold as an anticancer agent, was used as a control group drug. Specifically, the cell viability assay was performed as follows. A549, SK-OV-3, SK-MEL-2, and HCT15 cell lines were seeded in 96 well plates at the density of 5×10^3 cells per well and cultured for 24 hours. Then, the plates were treated with the compound of Example 1 or etoposide at different concentrations, followed by culture for 24 and 48 hours. At the end of the culture, 100 μl of WST-8 solution was added to each well of the plate, and the absorbance was measured with a microplate reader using a 450 nm optical filter to measure the formazan produced by the reducing factors in living cells. • A549: human non-small cell lung cancer cells • SK-OV-3: human ovarian cancer cells • SK-MEL-2: human melanoma cells • HCT15: human colorectal cancer adenocarcinoma cells

HCT15 = test: as above; assay type: cell-based, human; conditions: HCT15, 24 and 48 hours, dose dependently
Experimental: as §3

SK-MEL-2 = test: as above; assay type: cell-based, human; conditions: SK-MEL-2, 24 and 48 hours, dose dependently
Experimental: as §3

SK-OV-3 = test: as above; assay type: cell-based, human; conditions: SK-OV-3, 24 and 48 hours, dose dependently
Experimental: as §3

MDA-MB-231 [1] = test: Breast cancer growth inhibition in xenograft nude mice; assay type: in vivo; conditions: 25 mpk intravenously
Experimental: An experiment was performed to confirm the tumor inhibition of the compound of Example 1, the active ingredient of the pharmaceutical composition of the present invention, on a xenograft tumor sample of breast cancer cells (MBA-MB-231), a human-derived TNBC cell line.
Specifically, to confirm the effect of the compound of Example 1, which is the active ingredient of the pharmaceutical composition provided by the present invention, on the inhibition of breast cancer cell growth, an experiment was performed using 80 female 5-week-old xenograft Balb/c nude mice. The experimental xenograft Balb/c nude mice lacks T cells, the immune cells, were selected as an animal model suitable for transplanting human cancer cells. At the time of administration, animals within ±20% of the total average body weight were selected, and tumor growth was checked twice a week on the surface, and the size of the tumor was measured with a vernier caliper for 3 weeks. In addition, the compound of Example 1 was administered intravenously at a concentration of 25 mpk, and 30% PEG was used as a solvent.

MDA-MB-231 [2] = test: Number of mitotic figures / apoptotic bodies in xenograft tumor tissue (H&E); assay type: in vivo, BALB/c-nude mice; conditions: for Mitotic index: sum of five areas at x400
Experimental: An experiment was performed to evaluate the tumor necrosis effect of the compound of Example 1 by measuring the number of apoptotic bodies in tumors and H&E staining of tumor tissues in BALB/c-nude mice injected with cancer cell lines. […] After calculating the sum of the measurements and expressing them as individual values, statistical comparative analysis was performed using GraphPad Prism 5. As a result of observing the apoptotic body, it was observed that the cells were shrunk and divided (blebs) and that empty space (hollow) surrounded the periphery. […] Since the frequency of mitotic figures in tumor tissue is related to the dividing ability of tumor cells, it can reflect the degree of malignancy of the tumor.

BT20 = test: Breast cancer cell viability assay (WST-8); assay type: cell-based, human; conditions: dose dependently
Experimental: (§4) An experiment was performed to confirm the growth inhibitory effect of the compounds of Examples 1 and 2, the active ingredients of the pharmaceutical composition of the present invention, on breast cancer cell lines through cell viability assay.
(§5) Specifically, the cell viability assay was performed as follows. BT20, a human-derived breast cancer cell line, and MDA-MB-231, a TNBC cell line, were each seeded in 96-well plates at the density of 5×10^3 cells/well and cultured for 24 hours. […] At the end of the culture, 100 μl of WST-8 solution was added to each well of the plate, and the absorbance was measured with a microplate reader using a 450 nm optical filter to measure the formazan produced by the reducing factors in living cells.

MDA-MB-231 [3] = test: Breast cancer cell viability assay (WST-8); assay type: cell-based, human; conditions: dose dependently
Experimental: as §4, §5

MDA-MB-453 = test: Breast cancer cell viability assay (WST-8); assay type: cell-based; conditions: MDA-MB-453, 24 hours, dose dependently
Experimental: Specifically, the cell viability assay was performed as follows. BT20, a human-derived breast cancer cell line, and MDA-MB-231, a TNBC cell line, were each seeded in 96-well plates at the density of 5×10^3 cells/well and cultured for 24 hours. Then, I-bet 762 and the compounds were treated thereto at different concentrations and cultured for 48 hours. At the end of the culture, 100 μl of WST-8 solution was added to each well of the plate, and the absorbance was measured with a microplate reader using a 450 nm optical filter to measure the formazan produced by the reducing factors in living cells.
FIGS. 10A and 10B show the cell viability of MDA-MB-231, MDA-MB-453, and BT-20 after 24 hours of treatment with the compound of Example 3.

`CNC(=O)c1cc(Oc2ccc(NC(=O)Nc3ccc(Cl)c(C(F)(F)F)c3)cc2)ccn1` [sorafenib, reference compound] was tested, and the cell viability (Huh-7; Huh-7, 0.1 μM sorafenib alone) was “suppressed” and the cell viability (SK Hep1; SK Hep1, 0.1 μM sorafenib alone) was “suppressed”.
`N.N.[Cl][Pt][Cl]` [cisplatin, reference compound] was tested, and the cell viability (OVCAR-3; OVCAR-3, 1 μM of cisplatin alone) was “suppressed” and the cell viability (SKOV-3; SKOV-3, 1 μM of cisplatin alone) was “suppressed”.
In the case of `c1nc(Nc2ccc(N3CCCC3)cc2)c2cc[nH]c2n1` [Example 1, N-(4-(pyrrolidin-1-yl)phenyl)-7H-pyrrolo[2,3-d]pyrimidin-4-amine], the “toxicity to cancer cell line (cell viability)” value (from here on “toxicity to cancer cell line”) (A549; A549, 24 and 48 hours, dose dependently) is reported as “excellent toxicity”, the “toxicity compared with etoposide” value (A549; various cancer cell lines (A549, SK-OV-3, SK-MEL-2, HCT15)) is reported as “equally or more effective than etoposide” and the “toxicity to cancer cell line” value (HCT15) is reported as “excellent toxicity”. For the same molecule, the “toxicity to cancer cell line” value (SK-MEL-2) was “excellent toxicity”, the “toxicity to cancer cell line” value (SK-OV-3) was “excellent toxicity” and the “biological toxicity (change in body weight)” value (MDA-MB-231 [1]; 3 weeks) was “no biological toxicity”. The cachexia phenomenon (MDA-MB-231 [1]; 3 weeks) was “not observed”, the “tumor growth (change in tumor size/volume)” value (MDA-MB-231 [1]; vs CTL) was “significantly suppressed” and the “tumor growth (change in tumor weight)” value (MDA-MB-231 [1]; vs CTL) was “significantly suppressed”. For the same molecule, the “number of apoptotic bodies” value (MDA-MB-231 [2]; T1 and T2 groups compared to NC, dose dependently) was “higher”, the Mitotic index (MDA-MB-231 [2]; T1 group (2 times/week)) was 25.5 ± 10.2 and the Mitotic index (MDA-MB-231 [2]; T2 group (3 times/week)) was 20.8 ± 7.4. The cell viability (OVCAR-3; OVCAR-3, 0.1 μM Example 1 in combination with 10 μM cisplatin) was “further inhibited (synergistic effect)”, the cell viability (OVCAR-3; OVCAR-3, 0.1 μM alone) was “suppressed” and the cell viability (SKOV-3; SKOV-3, 0.1 μM Example 1 in combination with 10 μM cisplatin) was “further inhibited (synergistic effect)”. The cell viability (SKOV-3; SKOV-3, 0.1 μM alone) was “suppressed”, the cell viability (Huh-7; Huh-7, 5 μM Example 1 in combination with 0.1 μM sorafenib) was “further inhibited (synergistic effect)” and the cell viability (Huh-7; Huh-7, 5 μM alone) was “suppressed”. For the same molecule, the cell viability (SK Hep1; SK Hep1, 5 μM Example 1 in combination with 0.1 μM sorafenib) was “further inhibited (synergistic effect)” and the cell viability (SK Hep1; SK Hep1, 5 μM alone) was “suppressed”.
For `CN1CCN(c2ccc(C(=O)Nc3n[nH]c4ncc(Br)cc34)cc2)CC1` [Example 2, N-(5-bromo-1H-pyrazolo[3,4-b]pyridin-3-yl)-4-(4-methylpiperazin-1-yl)benzamide], the cell viability (BT20; BT20, 24 and 48 hours) was “inhibited the cell viability” and the cell viability (MDA-MB-231 [3]; MDA-MB-231, 24 and 48 hours) was “inhibited the cell viability”.
In the case of `O=C(Nc1n[nH]c2ncc(-c3cnn(C4CCNCC4)c3)cc12)c1ccc(F)cc1` [Example 3, 4-fluoro-N-(5-(1-(piperidin-4-yl)-1H-pyrazol-4-yl)-1H-pyrazolo[3,4-b]pyridin-3-yl)benzamide], the cell viability (BT20; BT-20, 24 hours) is reported as “suppressed”, the cell viability (MDA-MB-231 [3]; MDA-MB-231, 24 hours) is reported as “suppressed” and the cell viability (MDA-MB-453) is reported as “suppressed”.

Source: patent publication US20250339433A1, “PHARMACEUTICAL COMPOSITION FOR PREVENTION, ALLEVIATION, OR TREATMENT OF CANCER” (JBKLAB CO.,LTD., priority 2021, published 2025)
